Assays:
[1] = target: Baculoviral IAP repeat-containing protein 3/Mucosa-associated lymphoid tissue lymphoma translocation protein 1 (Homo sapiens, UniProt Q13489+Q9UDY8); experiment: Inhibition of cIAP2-MALT1 (unknown origin) expressed in HEK293 cells assessed as inhibition of NFkappaB signaling after 24 hrs by luciferase reporter gene assay; format: cell-based
[2] = target: T1, Mucosa-associated lymphoid tissue lymphoma translocation protein 1 (Homo sapiens, UniProt Q9UDY8); experiment: Inhibition of MALT1 (unknown origin) expressed in human Jurkat Clone K22 29Q_H23 cells assessed as IL2 production preincubated for 30 mins followed by PMA stimulation for 5.5 hrs by luciferase reporter gene assay; format: cell-based
T1 sequence (Q9UDY8 whole entry): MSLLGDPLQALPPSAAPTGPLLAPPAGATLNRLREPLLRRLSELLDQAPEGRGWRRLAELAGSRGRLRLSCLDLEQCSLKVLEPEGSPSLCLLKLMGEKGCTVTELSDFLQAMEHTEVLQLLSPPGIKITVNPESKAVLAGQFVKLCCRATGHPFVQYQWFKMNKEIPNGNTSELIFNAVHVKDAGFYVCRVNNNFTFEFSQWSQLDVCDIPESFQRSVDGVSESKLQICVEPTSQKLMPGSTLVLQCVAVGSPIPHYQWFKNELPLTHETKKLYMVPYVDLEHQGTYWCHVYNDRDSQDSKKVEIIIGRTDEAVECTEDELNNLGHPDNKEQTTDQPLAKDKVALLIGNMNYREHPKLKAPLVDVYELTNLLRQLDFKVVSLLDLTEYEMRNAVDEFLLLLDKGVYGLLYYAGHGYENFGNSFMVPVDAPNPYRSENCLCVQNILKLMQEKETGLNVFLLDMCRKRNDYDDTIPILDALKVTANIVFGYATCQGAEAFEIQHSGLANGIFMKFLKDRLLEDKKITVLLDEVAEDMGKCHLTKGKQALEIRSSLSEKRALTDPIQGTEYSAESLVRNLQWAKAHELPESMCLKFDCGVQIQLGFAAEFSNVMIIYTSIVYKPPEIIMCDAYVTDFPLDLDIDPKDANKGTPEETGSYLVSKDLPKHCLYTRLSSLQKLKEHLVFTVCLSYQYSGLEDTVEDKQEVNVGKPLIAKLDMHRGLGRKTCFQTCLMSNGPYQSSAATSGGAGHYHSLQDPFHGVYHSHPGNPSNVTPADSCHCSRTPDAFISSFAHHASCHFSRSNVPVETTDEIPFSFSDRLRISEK

Chain of Baculoviral IAP repeat-containing protein 3/Mucosa-associated lymphoid tissue lymphoma translocation protein 1 (Q13489 whole entry, one chain of several): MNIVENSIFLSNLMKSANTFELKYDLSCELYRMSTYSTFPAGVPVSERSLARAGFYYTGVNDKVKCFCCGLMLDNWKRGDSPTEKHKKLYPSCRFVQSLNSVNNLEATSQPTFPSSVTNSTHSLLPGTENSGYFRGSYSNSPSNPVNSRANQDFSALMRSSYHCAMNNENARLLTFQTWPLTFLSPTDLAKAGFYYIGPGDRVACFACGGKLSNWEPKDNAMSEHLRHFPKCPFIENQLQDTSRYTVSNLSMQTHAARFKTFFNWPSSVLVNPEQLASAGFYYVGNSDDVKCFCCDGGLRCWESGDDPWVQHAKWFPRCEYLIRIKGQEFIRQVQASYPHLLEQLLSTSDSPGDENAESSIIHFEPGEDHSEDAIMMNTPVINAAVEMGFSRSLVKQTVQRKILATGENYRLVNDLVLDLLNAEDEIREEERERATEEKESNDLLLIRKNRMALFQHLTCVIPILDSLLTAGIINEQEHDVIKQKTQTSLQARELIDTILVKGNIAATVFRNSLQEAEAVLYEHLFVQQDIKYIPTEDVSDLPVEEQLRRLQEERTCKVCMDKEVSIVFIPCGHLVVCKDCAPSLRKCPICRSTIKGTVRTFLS

IC50 [1] [nM] | IC50 [2] [nM] | Structure (SMILES)
84 | 28 | COCC(c1c(NC(=O)Nc2cnc(-n3nccn3)c(Cl)c2)cnc2cc(Cl)nn12)C1CC1 (stereo unspecified)
54 | 248 | CC(C)c1c(NC(=O)Nc2cnc(N3CCCS3(=O)=O)c(C(F)(F)F)c2)cnc2cc(Cl)nn12
132 | 52 | CO[C@@H](C)c1c(NC(=O)Nc2cncc(C(F)(F)F)c2)cnc2cc(C)nn12
